Results from patent US11427531B2, “Modulators of potassium ion and TRPV1 channels and uses thereof” (Ramot at Tel-Aviv University Ltd., priority 2017, dated 2022).
Read-outs that look alike come from different tables or passages of the source.

Key:
[1] = test system: DRG neuron spike discharge triggered by activation of TRPV1 channels by capsaicin; assay: Capsaicin-evoked DRG neuron spike discharge; format: cell-based
Procedure: (§1) For current-clamp recordings in DRG neurons, the patch pipettes were filled with (in mM): 135 KCl, 1 K2ATP, 1 MgATP, 2 EGTA, 1.1 CaCl2, 5 glucose (free [Ca^2+]i=87 nM), 10 HEPES, adjusted with KOH at pH 7.4 (315 mOsm). The external solution contained (in mM): 150 NaCl, 2.5 KCl, 2 CaCl2, 2 MgCl2, 15 glucose, 10 HEPES, adjusted with NaOH at pH 7.4 (325 mOsm). Drug exposure was evoked by rapid application using a fast perfusion system (AutoMate Scientific).
The dual targeting and the synergistic effect of NH91 is further illustrated in FIGS. 17A-B and 18A-B, by its effect on the DRG neuron spike discharge triggered by the activation of TRPV1 channels by 1 μM capsaicin.

[2] = molecular target: cardiac Herg channel (Homo sapiens, UniProt Q12809); assay: Cardiac channel Herg current recordings
cardiac Herg channel, sequence (Q12809 whole entry): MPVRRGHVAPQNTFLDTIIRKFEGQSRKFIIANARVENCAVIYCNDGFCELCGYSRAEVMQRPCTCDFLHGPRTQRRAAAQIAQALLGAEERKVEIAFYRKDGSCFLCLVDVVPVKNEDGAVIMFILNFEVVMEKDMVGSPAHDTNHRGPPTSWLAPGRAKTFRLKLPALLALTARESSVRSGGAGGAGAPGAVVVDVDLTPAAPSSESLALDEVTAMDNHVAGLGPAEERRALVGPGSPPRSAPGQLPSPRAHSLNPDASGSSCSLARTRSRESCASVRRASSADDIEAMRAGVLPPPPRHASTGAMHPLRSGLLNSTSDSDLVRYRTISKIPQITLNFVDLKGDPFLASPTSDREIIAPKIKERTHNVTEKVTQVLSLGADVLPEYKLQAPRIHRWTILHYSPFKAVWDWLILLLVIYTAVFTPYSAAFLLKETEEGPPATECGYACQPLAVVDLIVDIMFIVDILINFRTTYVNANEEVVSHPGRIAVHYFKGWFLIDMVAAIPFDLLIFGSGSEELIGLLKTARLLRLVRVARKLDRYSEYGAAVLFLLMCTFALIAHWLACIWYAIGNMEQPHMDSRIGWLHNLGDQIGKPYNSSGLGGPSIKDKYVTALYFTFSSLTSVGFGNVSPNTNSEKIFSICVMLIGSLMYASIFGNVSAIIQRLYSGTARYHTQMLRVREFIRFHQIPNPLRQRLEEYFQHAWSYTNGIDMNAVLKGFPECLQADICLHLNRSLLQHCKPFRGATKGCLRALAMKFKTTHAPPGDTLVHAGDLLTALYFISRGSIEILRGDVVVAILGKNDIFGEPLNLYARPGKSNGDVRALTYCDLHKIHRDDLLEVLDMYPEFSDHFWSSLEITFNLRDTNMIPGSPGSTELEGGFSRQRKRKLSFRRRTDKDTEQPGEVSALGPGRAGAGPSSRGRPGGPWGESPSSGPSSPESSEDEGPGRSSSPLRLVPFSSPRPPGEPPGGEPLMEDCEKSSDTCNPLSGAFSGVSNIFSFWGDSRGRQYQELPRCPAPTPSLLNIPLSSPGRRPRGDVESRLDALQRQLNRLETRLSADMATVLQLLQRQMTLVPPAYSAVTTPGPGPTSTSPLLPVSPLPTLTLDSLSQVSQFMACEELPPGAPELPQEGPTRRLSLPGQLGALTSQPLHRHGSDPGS
Procedure: Cardiac channel Herg current recordings were performed as follows:
Cells were held at −90 mV and stepped for 1.5 s from −70 mV to +30 mV in 10 mV increments and repolarized at −60 mV.

[3] = molecular target: T1, recombinant TRPV1 channel (Homo sapiens, UniProt Q8NER1); assay: Whole-cell recording of capsaicin-activated recombinant TRPV1 currents in transfected CHO cells; format: cell-based
T1 construct: expressed in transfected cells; host or cells: CHO cells
T1 sequence (Q8NER1 whole entry): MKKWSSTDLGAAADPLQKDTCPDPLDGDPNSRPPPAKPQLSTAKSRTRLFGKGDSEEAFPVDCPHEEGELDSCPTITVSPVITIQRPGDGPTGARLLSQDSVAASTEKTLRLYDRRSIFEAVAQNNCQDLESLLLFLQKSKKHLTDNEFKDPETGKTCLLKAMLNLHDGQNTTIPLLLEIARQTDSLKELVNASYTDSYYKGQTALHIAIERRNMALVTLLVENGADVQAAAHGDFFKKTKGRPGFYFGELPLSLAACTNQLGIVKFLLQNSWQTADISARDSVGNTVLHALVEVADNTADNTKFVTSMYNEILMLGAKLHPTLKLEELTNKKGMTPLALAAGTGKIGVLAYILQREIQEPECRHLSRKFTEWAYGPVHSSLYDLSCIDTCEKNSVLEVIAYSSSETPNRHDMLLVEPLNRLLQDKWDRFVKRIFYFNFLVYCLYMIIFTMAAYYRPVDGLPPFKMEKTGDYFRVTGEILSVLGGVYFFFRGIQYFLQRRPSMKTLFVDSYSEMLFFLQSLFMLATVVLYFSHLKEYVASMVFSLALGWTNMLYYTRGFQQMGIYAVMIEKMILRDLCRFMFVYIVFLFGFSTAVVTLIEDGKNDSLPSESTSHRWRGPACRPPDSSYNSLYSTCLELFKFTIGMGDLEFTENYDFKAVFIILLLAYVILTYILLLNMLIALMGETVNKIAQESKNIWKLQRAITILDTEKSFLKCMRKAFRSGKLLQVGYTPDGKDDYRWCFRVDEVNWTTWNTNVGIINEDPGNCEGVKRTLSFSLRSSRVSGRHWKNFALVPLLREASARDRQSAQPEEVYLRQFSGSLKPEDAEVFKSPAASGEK
Procedure: (§2) For Kv7.2 potassium current recordings, the patch pipettes were pulled from borosilicate glass (Warner Instrument Corp) with a resistance of 3-7 MΩ, and were filled with (in mM): 130 KCl, 5 Mg ATP, 5 EGTA, 10 HEPES, pH 7.3 (adjusted with KOH), and sucrose was added to adjust osmolarity to 290 mOsmol. The external solution contained (in mM): 140 NaCl, 4 KCl, 1.2 MgCl2, 1.8 CaCl2, 11 glucose, 5.5 HEPES, pH 7.3 (adjusted with NaOH), and sucrose was added to adjust osmolarity to 310 mOsmol. […] For TRPV1 current recordings, the solutions were the same as those used for Kv7.2, except that the extracellular solution contained no CaCl2 to limit desensitization and included 1 mM EGTA and 1 mM MgCl2.
Inhibition of recombinant TRPV1 channel was tested as described in Example 2 hereinabove.
TRPV1 whole-cell currents were activated by exposing transfected CHO cells to 0.5 μM capsaicin at a holding potential of −60 mV.
FIG. 9 presents the effect of 5 μM NH66 on recombinant TRPV1 currents activated by 0.1 μM capsaicin (CAP). In FIG. 9 are shown the TRPV1 currents evoked by application of 0.1 μM capsaicin to transfected CHO cells. In the upper panel are shown the currents only evoked by application of 0.1 μM capsaicin; in the middle panel, are shown the currents first evoked by application of 0.1 μM capsaicin+5 μM NH66, then by 0.1 μM capsaicin only.

[4] = molecular target: T2, recombinant Kv7.2/3 channels (Homo sapiens, UniProt O43525+O43526); assay: Whole-cell patch clamp of recombinant Kv7.2/3 currents in transfected CHO cells; format: cell-based; details: for increase of the amplitude of recombinant Kv7.2/3 currents: 5 μM compound, at −40 mV, CHO cells; for EC50: N = 5-10; for V50 (parameter of potency for Kv7.2/3 At 5 μM): compound at 5 μM, N = 5-12
T2 construct: expressed in transfected cells; host or cells: CHO cells
Procedure: Chinese hamster ovary CHO cells were grown in Dulbecco's modified Eagle's medium supplemented with 2 mM glutamine, 10% fetal calf serum, and antibiotics. In brief, 40,000 cells seeded on poly-D-lysine-coated glass coverslips (13 mm in diameter) in a 24-multiwell plate were transfected with pIRES-CD8 (0.3 μg) as a marker for transfection with 0.5 μg Kv7.2 and 0.5 μg Kv7.3. Transfection was performed using 3.6 μl of X-tremeGENE 9 (Roche) according to the manufacturer's protocol. For electrophysiology, transfected cells were visualized approximately 40 h after transfection, using the anti-CD8 antibody coated beads method.
as §2
Chinese hamster ovary CHO cells were grown in Dulbecco's modified Eagle's medium supplemented with 2 mM glutamine, 10% fetal calf serum, and antibiotics. In brief, 40,000 cells seeded on poly-D-lysine-coated glass coverslips (13 mm in diameter) in a 24-multiwell plate were transfected with pIRES-CD8 (0.3 μg) as a marker for transfection with 0.5 μg of Kv7.2 and Kv7.3 cDNA plasmids. Transfection was performed using 3.6 μl of X-tremeGENE 9 (Roche) according to the manufacturer's protocol. For electrophysiology, transfected cells were visualized approximately 40 h after transfection, using the anti-CD8 antibody coated beads method. Recordings were performed using the whole cell configuration of the patch clamp technique. Signals were amplified using an Axopatch 200B patch-clamp amplifier (Axon Instruments), sampled at 5 kHz and filtered at 2.4 kHz via a four pole Bessel low pass filter. Data were acquired using pClamp 10.5 software in conjunction with a DigiData 1440A interface. The patch pipettes were pulled from borosilicate glass (Harvard Apparatus) with a resistance of 3-7 megaohms. The intracellular pipette solution contained 130 mM KCl, 5 mM K2-ATP, 5 mM EGTA (or 5 mM BAPTA when indicated), 10 mM HEPES, pH 7.3 (adjusted with KOH), CaCl2 (as needed for different values of free Ca2+ concentration according to MAXCHELATOR software, with sucrose added to adjust osmolarity to 290 mosmol. The external solution contained 140 mM NaCl, 4 mM KCl, 1.8 mM CaCl2, 1.2 mM MgCl2, 11 mM glucose, 5.5 mM HEPES, adjusted with NaOH to pH 7.3 (310 mOsM). Series resistances were compensated (75-90%) and periodically monitored. Data analysis was performed using the Clampfit program (pClamp 10.5; Axon Instruments), Microsoft Excel (Microsoft, Redmond, Wash.), and Prism 5.0 (GraphPad Software, Inc., San Diego, Calif.). Leak subtraction was performed off-line, using the Clampfit program of the pClamp 10.5 software.
The normalized conductance was plotted as a function of the test voltages, for cells in the absence and presence of the drug. Chord conductance (G) was calculated by using the following equation: G=I/(V−Vrev), where I corresponds to the current amplitude measured at the end of the pulse, and Vrev is the calculated reversal potential assumed to be −90 mV in CHO cells. G was estimated at various test voltages (V) and then normalized to a maximal conductance value, Gmax. Activation curves were fitted by one Boltzmann distribution: G/Gmax=1/{1+exp[(V50−V)/s]}, where V50 is the voltage at which the current is half-activated and s is the slope factor.

[5] = test system: nociceptive dorsal root (DRG) sensory neurons; assay: Current-clamp recording of evoked spike discharge in DRG neurons; format: cell-based, rat
Procedure: Inhibition of the evoked spike discharge of nociceptive dorsal root (DRG) sensory neurons was tested as follows:
as §1

[6] = test system: inward voltage-dependent Ca2+ and Na+ current in DRG neurons; assay: Inward voltage-dependent Ca2+ and Na+ current in DRG neurons; format: cell-based; details: 5 μM
[7] = DRG neuron, rat DRG neurons, read-out: IC50 of inhibition of evoked spike discharge of nociceptive DRG sensory neurons
[8] = Rattus norvegicus, Neuron, N = 5-10, read-out: IC50 on inhibition of evoked spike discharge in DRG sensory neurons
[9] = N = 5-10, Retigabine: No effect at 30, read-out: IC50 on TRPV1

Row | SMILES | inhibition at 0.1 µM ([1]; DRG neuron, read-out: inhibition of capsaicin-evoked DRG spikes) | IC50 [2] | IC50 ([3]; currents activated by 0.1 μM capsaicin, read-out: IC50 of inhibition of recombinant TRPV1 currents) | increase of the amplitude of recombinant Kv7.2/3 currents [4] | EC50 [4] | V50 (parameter of potency for Kv7.2/3 At 5 μM) [4] | IC50 [5, 7] | IC50 [5, 8] | IC50 [3, 9] | effect on DRG evoked spike discharge (in words) [5] | IC50 on TRPV1 ([3]; N = 5-10, Retigabine: No effect at 30) | effect on amplitude at −40 mV and voltage-dependence of Kv7.2/3 channels (in words) [4] | effect on inward voltage-dependent Ca2+ and Na+ current in DRG neurons [6] | inhibition of capsaicin-evoked DRG spike discharge in the presence of XE991 ([1]; Kv7.2/3 channel blocker XE991 10 μM present, n=11) | IC50 ([5]; Rattus norvegicus, Neuron, read-out: IC50 on inhibition of evoked spike discharge in DRG sensory neurons)
1 | CC(=O)Nc1nc2c(Oc3cc(-c4ccc(C(F)(F)F)cc4)ncn3)cccc2s1 [AMG 517, reference compound] | 42% |  |  |  |  |  |  |  |  |  |  |  |  |  | 
2 | CC(C)(O)CNC(=O)Cc1cc(Nc2c(Cl)cc(Cl)cc2Cl)ccc1F [NH66] |  | > 60000 nM | 300 nM | about 3.5 fold | 1000 nM | −30.3 mV | 500 nM | 500 nM |  |  |  |  |  |  | 
3 | CC(C)(O)CCNC(=O)Cc1cc(Nc2c(Cl)cc(Cl)cc2Cl)ccc1F [NH83] |  |  |  |  | 600 nM | −37.3 mV |  | 200 nM | 800 nM | slightly improved activity |  |  |  |  | 
4 | CCOC(=O)Nc1ccc(NCc2ccc(F)cc2)cc1N [Retigabine, N-(2-amino-4-(4-fluorobenzylamino)-phenyl)carbamic acid ethyl ester, reference compound] |  | > 30000 nM |  |  |  | −30.4 mV |  | 5000 nM |  |  | No effect |  |  |  | 
5 | O=C(Cc1ccc(Nc2c(Cl)cc(C(F)(F)F)cc2Cl)cc1)NCCO [NH34, reference compound] |  | 35000 nM |  |  | 17500 nM | −28.1 mV |  | 25000 nM | 55000 nM |  |  |  |  |  | 
6 | O=C(Cc1cc(Nc2c(Cl)cc(Cl)cc2Cl)ccc1F)NC1CCC(O)C1 (stereo not shown) [NH110] |  |  |  |  | 7300 nM | −38.5 mV |  | 200 nM |  | inhibits |  | potently increase the amplitude left-shift the voltage-dependence of activation |  |  | 
7 | CC(C)c1cc(Cl)cc(Cl)c1Nc1ccc(F)c(CC(=O)NCC(C)(C)O)c1 [NH91] |  | > 60000 nM |  |  | 2000 nM | −42.4 mV |  | 1000 nM | 100 nM | prominently inhibits |  | potently increase the amplitude left-shift the voltage-dependence of activation | did not affect | 50% | 
8 | CC(C)(O)CCNC(=O)Cc1cc(Nc2c(Cl)cc(Cl)cc2C2CC2)ccc1F [NH101] |  | > 50000 nM |  |  | 200 nM | −67.4 mV |  | 200 nM | 100 nM |  |  | potently increase the amplitude left-shift the voltage-dependence of activation |  |  | 
9 | O=C(Cc1cc([N+](=O)[O-])cc([N+](=O)[O-])c1Nc1c(Cl)cc([N+](=O)[O-])cc1Cl)NCCO [NH29, reference compound] |  | 5000 nM |  |  |  | −27.4 mV |  |  | 4200 nM |  |  |  |  |  | 18000 nM
10 | CC(C)(CO)CNC(=O)Cc1cc(Nc2c(Cl)cc(Cl)cc2Cl)ccc1F [NH82] |  | > 100000 nM |  |  | 500 nM | −41.1 mV |  | 500 nM | 400 nM |  |  |  |  |  | 
11 | O=C(Cc1cc(Nc2c(Cl)cc(Cl)cc2Cl)ccc1F)NCCO [NH43, reference compound] |  | > 60000 nM |  | about 3.5 fold | 600 nM | −42.0 mV | 300 nM | 300 nM | 400 nM |  |  |  |  |  | 
